Data on two compounds can be found in patent publication US20200268019A1, “USE OF ZINC AND COPPER GLUCONATE IN THE TREATMENT OF METHICILLIN-RESISTANT STAPHYLOCOCCUS AUREUS” (Distributors Processing, Inc., priority 2015, published 2020).

Data set [1] in a line: Test of efficacy and safety: zinc source in dry feed of domesticated pigs, daily weight gain. To be noted: for Average daily weight gain: 83 days. The source says: In a confirmation experiment the safety of using powdered zinc gluconate as a conventional dietary supplement in the dietary mineral supply of domesticated pigs was examined in a controlled study.
3 groups of pigs, each comprising 11 individuals were identically fed save for the source of zinc as according to Table 1. Group 1, which was the control group, was fed […] 75% zinc oxide per ton dry feed according to normal feeding recommendations. Group 2 was fed zinc gluconate as a powder. Group 3 was fed zinc gluconate and further including 100 g Micro Aid® per ton feed. The amount of zinc fed to the animals of the three study groups was identical and corresponding to 23 g zinc per ton dry feed. Micro Aid® is dietary supplement known to enhance growth and reduce ammonia excretions in domesticated pigs. It is a registered trade mark of DPI Global, 17656 Avenue 168, Porterville, Calif. 93257. Micro Aid® has a recognized effect on the growth increase of pigs on the order of 4% per 100 g added Micro Aid® per ton feed.
The daily gain of weight for each individual was registered during the trial period and the trial was terminated after 83 days. For comparison the expected weight gain of adding Micro Aid® to a feed mixture comprising one of the two zinc sources has been calculated.

The nature of data set [2]: Study 1: randomized trial of 0.05% zinc gluconate in pellet feed, productivity and health of pigs. As to conditions: for combined disease and mortality withdrawal rate / pigs treated for diarrhea during the study period: 204 pigs per group, 12 weeks. As to the method:
In a randomized trial the effect of the addition of 0.05% zinc gluconate to a standard pellet feed was tested for efficacy against Salmonella, health condition of the digestive system including stomach and intestines, and productivity in pigs, and compared to an otherwise identical diet without zinc gluconate. The control group received zinc in the form of zinc oxide to the same amount as the study group.
408 pigs from a single farm were randomly partitioned into two groups of 204 pigs each and fed with either a pelleted control feed or an otherwise identical pelleted feed comprising 0.05% zinc gluconate. In order maintain comparability of control group to study group and to diminish the influence of lung disease on the mortality of the control group, both groups were twice vaccinated with Porcilis against severe lung disease.
All pigs were followed for 12 weeks starting with their inclusion into the trial and ending with their transport to a meat processing plant. For all pigs in the study data on the feed uptake, growth, eventual diseases suffered during the study period were collected as well as including the complete slaughter records of the meat processing plant into the study. Pigs were included into the trial upon reaching an entry weight of on the average 33 kg. The pigs were weighed at inclusion into the trial, after 6 weeks, and after 12 weeks. […] The pigs in the study were allowed to eat and drink freely and the access to water and dietary was unrestricted.

The next data set has as its system Salmonella. Nature of the data set: Study 1: test for antigens against Salmonella in the blood of pigs. To be noted: for Relative risk: Salmonella, relative to control; for Pct. positives / Positives: Salmonella-positive blood samples; for Positives: of 126 (control) / 108 (study) samples. In kind it is in vivo. As to the method:
A subset of the pigs in both study groups were tested for Salmonella prior to shipping out of the test and to the meat processing facility by testing for antigens against Salmonella in the blood. An inclusion rate of 60% was desired for both groups but was not reached for the study group.

For data set [3] the following is noted: administered as pills; cited from earlier work.
The nature of data set [4]: Study 2: comparison of two farms, open wounds and footpad lesions in sows. The format is in vivo. As for the experimental part:
(§1) A controlled comparison study between two groups of pigs at two farms in the province of Nordjylland, Denmark, was performed, each farm having about 600 sows in production and each farm feeding the sows in the production zinc according to veterinarian recommendations of 75 ppm zinc per FU. At farm 1, the sows received zinc in the form of zinc oxide whereas at farm 2, the sows received zinc in the form of zinc gluconate.

Data set [5] can be described thus: Study 3: birth weight of piglets and milk production of sows. In kind it is in vivo. As to the method:
as §1

[6] abbreviates: pigs, 11 per group, 23 g zinc per ton dry feed.
Where [7] appears, read: pigs having weights between 33-65 kg.
[8] abbreviates: pigs weighing between 65-105 kg.

Turning to `[O]=[Zn]` [zinc oxide, reference compound], the “Average daily weight gain” value in data set [1] (setting [6]) stood at 822 g/daily. In data set [2], the “combined disease and mortality withdrawal rate” value is 1.7%; the “pigs treated for diarrhea during the study period” value is “about 15%”. Further, in data set [2] (average, whole trial 33-105 kg), the “feeding units (FU) to achieve 1 kg of growth” value (from here on “feeding units (FU)”) was 2,85 FU/kg. For the same compound, in data set [2] (setting [7]), the “feeding units (FU)” value was 2,53 FU/kg. The “feeding units (FU)” value in data set [2] (setting [8]) was determined as 3.13 FU/kg. In the data set on Salmonella, this compound registered a Relative risk of 1, a Pct. positives of 30.2% and a Positives of 38. Moreover, the “added zinc taken up by the digestive system” value in data set [3] is 20%.
With zinc gluconate, the “Average daily weight gain” value came to 910 g/daily in data set [1] (Group 3: zinc gluconate further including 100 g Micro Aid per ton feed) and 875 g/daily in data set [1] (setting [6]). For the same compound, the “signs of malnourishment or increased infection levels” value in data set [1] (regular inspection by a veterinarian) was “no signs of these conditions were observed”. Besides, the “combined disease and mortality withdrawal rate” value in data set [2] turned out to be 1.7%. The “pigs treated for diarrhea during the study period” value in data set [2] is “about 15%”. Besides, the “feeding units (FU)” value in data set [2] (average, whole trial 33-105 kg) is listed as 2.78 FU/kg; in data set [2] (setting [7]), 2,51 FU/kg; in data set [2] (setting [8]), 3.00 FU/kg. In the data set with Salmonella, this compound came in with a Relative risk of 0.56. The same compound yielded a Pct. positives with Salmonella of 22.2%. Moreover, the Positives in the data set on Salmonella stood at 24. Further, the “sows suffering from lesions on their footpads” value in data set [4] (sows of farm 2, 75 ppm zinc per FU) is “disappeared almost completely”. Further, the “number of open wounds” value in data set [4] (sows, 75 ppm zinc per FU, within a month of the dietary change) was “rapid decrease in the number of open wounds”. In data set [5] (farm 2 compared to farm 1 (zinc oxide)), the “milk production of the sows” value is reported as “increased compared to the sows of farm 1”. The “weight of piglets at birth” value in data set [5] (sows of farm 2) was “above average weight at birth”.
